# Assay results reported in publication PMC11039317, “Acidity of persulfides and its modulation by the protein environments in sulfide quinone oxidoreductase and thiosulfate sulfurtransferase” (The Journal of Biological Chemistry, 2024).
# “And” between values parts separate entries of the source, which are not always exact repeats. Identical values can stand only once.
# B1: TST (protein, UniProt Q16762 2-297, looked up)
# Thiosulfate sulfurtransferase: VHQVLYRALVSTKWLAESIRTGKLGPGLRVLDASWYSPGTREARKEYLERHVPGASFFDIEECRDTASPYEMMLPSEAGFAEYVGRLGISNHTHVVVYDGEHLGSFYAPRVWWMFRVFGHRTVSVLNGGFRNWLKEGHPVTSEPSRPEPAVFKATLDRSLLKTYEQVLENLESKRFQLVDSRSQGRFLGTEPEPDAVGLDSGHIRGAVNMPFMDFLTEDGFEKGPEELRALFQTKKVDLSQPLIATCRKGVTACHVALAAYLCGKPDVAVYDGSWSEWFRRAPPESRVSQGKSEKA
# B2: human 3-mercaptopyruvate sulfurtransferase: sulfurtransferase enzyme, literature thiol pKa (protein, UniProt P25325 2-297, looked up)
# 3-mercaptopyruvate …: ASPQLCRALVSAQWVAEALRAPRAGQPLQLLDASWYLPKLGRDARREFEERHIPGAAFFDIDQCSDRTSPYDHMLPGAEHFAEYAGRLGVGAATHVVIYDASDQGLYSAPRVWWMFRAFGHHAVSLLDGGLRHWLRQNLPLSSGKSQPAPAEFRAQLDPAFIKTYEDIKENLESRRFQVVDSRATGRFRGTEPEPRDGIEPGHIPGTVNIPFTDFLSQEGLEKSPEEIRHLFQEKKVDLSKPLVATCGSGVTACHVALGAYLCGKPDVPIYDGSWVEWYMRARPEDVISEGRGKTH
# What was measured:
# Cys = conditions: cited from earlier work
# Cys248 = Cys248 (UniProt position 248, PLIATCRKGVT); test: kinetics; conditions: 25 °C; I = 0.15 M (120 mM NaCl); acetic/MES/Tris (15 mM acetic acid, 15 mM MES, 30 mM Tris, 120 mM NaCl, 0.1 mM DTPA); TST thiol (sulfur-free) form reacting with thiosulfate, pseudo-first order
# Human TST [1] = target: T1, Human TST (Homo sapiens, UniProt Q16762); conditions: cited from earlier work
# Human SQOR [2] = target: T2, Human SQOR (Homo sapiens, UniProt Q9Y6N5); format: biochemical
# T2 construct: made in house
# Experimental: The acidity of the persulfidated SQOR was evaluated by the pH-dependence of the steady-state rates. For enzymes that catalyze reactions with one substrate, the kinetic parameter kcat/Km (specificity constant) is an apparent second-order rate constant that reports on the properties of the free enzyme and the free substrate ([32]). kcat/Km can be calculated from the kinetic parameters kcat and Km obtained from typical Michaelis–Menten analysis (Equation 1). […]
# SQOR uses three substrates: H2S, a sulfur acceptor (Acc^−), and CoQ (Fig. 1A). At saturating concentrations of H2S and CoQ, the kcat/Km^Acc- represents the apparent rate constant for the reaction between the sulfur acceptor and the Cys379SSH of the bis-persulfidated SQOR, and its pH-dependency reports on the pKa of both free species. Although the pH dependence of human SQOR activity has been reported ([25]), the pH dependence of kcat/Km is unavailable. The steady-state rate of SQOR was determined by monitoring the reduction of coenzyme Q1 (CoQ1) at 278 nm at varying pH at 25 °C. […]. Therefore, in the experiments with cyanide, the reactions were started with cyanide instead of SQOR so that the contribution of SQOR with H2S alone could be subtracted.
# In experiments with sulfite, steady-state time courses with varying concentrations of sulfite (0.01–8 mM) were recorded, and linear functions were fitted to the first 15 to 40 s following SQOR addition (Fig. 3A). The slope before SQOR addition was subtracted to correct for the background nonenzymatic reduction of CoQ1, which was minimal. From the hyperbolic fit of the activity versus sulfite concentration plot (Fig. 3B), the kinetic parameters kcat^sulfite and Km^sulfite were obtained, and the kcat/Km^sulfite for each pH were calculated. As expected, when the kcat/Km^sulfite were plotted against pH, a bell-shaped profile was obtained (Fig. 3C), consistent with a reaction between a deprotonated species and a protonated one. An equation with two pKa was fitted to the data (Equation 3), assuming that deprotonated sulfite and protonated SQOR persulfide were the reacting species. […]. […]
# The steady-state rates were obtained from linear fits to the data during the first 4 to 20 s following cyanide addition, and the slopes before cyanide addition were subtracted. The kcat/Km^cyanide at each pH was calculated according to Equation 2 using the enzyme (50 nM) and cyanide (90 μM) initial concentrations. […]
# Human SQOR was expressed and purified as reported previously ([24], [25]). SQOR concentration was determined from the FAD absorbance at 450 nm, using ε = 11,500 M^−1 cm^−1 ([25]). […]
# The activity of SQOR was measured at different pHs in a temperature-controlled spectrophotometer (Shimadzu UV-2600 or UV-1900i). […]
# TST persulfide = TST persulfide (Homo sapiens, UniProt Q16762)
# Experimental: Stopped-flow kinetic studies were performed on the isolated half-reactions between TST persulfide and sulfur acceptors. Preformed stocks of TST persulfide were used to monitor its reaction with sulfite or cyanide at varying pH at 25 °C. The reactions were followed by the changes in the intrinsic fluorescence of TST, taking advantage of the higher fluorescence in the thiol versus the persulfidated state, as reported for the bovine enzyme ([37]).
# TST persulfide was exposed to a pseudo-first order excess of sulfite (15 and 75 μM) or cyanide (25 and 100 μM), and the increases in the intrinsic fluorescence were recorded (Fig. 5, A and B). Single exponential functions were fitted to the time courses. The kobs values were divided by the sulfite or cyanide concentration and the second order rate constants, kpH, were determined at each pH.
# The persulfidated TST was diluted in ultrapure water in one of the stopped-flow syringes (1.6–2.0 μM, ∼ 2 mM Tris) and mixed with sulfite (30 and 150 μM) or cyanide (50 and 200 μM) prepared in the other syringe in ACES/Tris/ethanolamine buffer 2× in a pH range of 5.60 to 10.38, at 25 °C. The final concentrations were halved as a consequence of the stopped-flow mixing. The increase in intrinsic fluorescence due to thiol formation was recorded during 0.025 to 10 s depending on the time course. The final pH of the reaction mixtures was measured.
# Human SQOR [3] = target: T2, Human SQOR; conditions: potassium phosphate, pH 7.4, 4 °C; cited from earlier work
# [4] = reported value; cited from earlier work
# Human TST [5] = target: T1, Human TST; conditions: pH 7.03
# Experimental: The activity of TST was measured at different pH values and 25 °C by the steady-state rate of thiocyanate formation. […] After 30 to 90 s, the reactions were stopped by removing 305 μl aliquots and mixing them with 20 μl of 38% formaldehyde (Biopack) and 25 μl of 140 mM FeCl3·6H2O (Sigma-Aldrich) diluted in 32.5% HNO3 (Dorwil). Absorbances at 460 nm (Varian Cary 60, Agilent) were recorded immediately and interpolated into a 0 to 30 μM thiocyanate calibration curve. The thiocyanate standards were prepared daily in ACES/Tris/ethanolamine buffer, pH 7.8, and underwent the same procedures as the samples ([1]).
# After 220 s, 5 μl of 5 M NaOH were added, changing the pH to 8.5. The concentrations of thiocyanate produced at 252 and 310 s were measured as described.
# [6] = test system: human 3-mercaptopyruvate sulfurtransferase; design: method as in earlier work; conditions: cited from earlier work
# T2 sequence (Q9Y6N5 whole entry): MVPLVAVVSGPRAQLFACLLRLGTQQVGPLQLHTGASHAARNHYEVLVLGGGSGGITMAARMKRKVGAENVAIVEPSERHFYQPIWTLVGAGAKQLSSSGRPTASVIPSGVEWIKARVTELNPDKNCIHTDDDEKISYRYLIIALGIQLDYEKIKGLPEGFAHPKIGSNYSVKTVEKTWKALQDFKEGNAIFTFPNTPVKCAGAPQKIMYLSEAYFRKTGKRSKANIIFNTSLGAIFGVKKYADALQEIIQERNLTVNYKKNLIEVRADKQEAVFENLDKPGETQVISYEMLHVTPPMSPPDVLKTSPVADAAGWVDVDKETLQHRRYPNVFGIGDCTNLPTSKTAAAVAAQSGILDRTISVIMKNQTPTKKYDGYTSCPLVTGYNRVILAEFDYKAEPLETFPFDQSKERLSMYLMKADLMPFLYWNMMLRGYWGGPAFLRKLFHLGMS
# T1 sequence (Q16762 whole entry): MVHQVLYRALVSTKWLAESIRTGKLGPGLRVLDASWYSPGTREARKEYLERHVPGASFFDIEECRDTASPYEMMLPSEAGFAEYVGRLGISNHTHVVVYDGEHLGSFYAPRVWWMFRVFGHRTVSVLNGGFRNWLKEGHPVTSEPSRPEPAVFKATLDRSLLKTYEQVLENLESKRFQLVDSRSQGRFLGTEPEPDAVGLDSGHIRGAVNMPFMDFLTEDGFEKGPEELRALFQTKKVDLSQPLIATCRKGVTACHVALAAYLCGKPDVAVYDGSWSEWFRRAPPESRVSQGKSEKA
# Chain of TST persulfide (Q16762 whole entry): as above
molecule,measurement,setting,value
3-Mercaptopyruvate sulfurtransferase (MPST) (Homo sapiens),pKa,Cys,5.2
"Thiosulfate sulfurtransferase (TST, rhodanese), thiol form (Homo sapiens)",pKa,Cys248,6.5 ± 0.1
O=S(O)(O)=S [thiosulfate],thiosulfate concentration causing inhibition of TST,Human TST [1]; b33: with 312 μM cyanide,30 mM and > 30 mM
same,Km,Human TST [1]; read-out: Km^thiosulfate,18 to 45 mM
O=S(O)O [sulfite],Km,"Human SQOR [2]; acetic/MES/Tris buffer containing 120 mM NaCl, pH 7.17, read-out: apparent Km^sulfite",2.4 ± 0.2 mM
same,pKa of the deprotonated species (sulfite),"Human SQOR [2]; fit of kcat/Km^sulfite of SQOR versus pH, 25 °C",6.8 ± 0.5
same,pKa of the deprotonated species (sulfite),TST persulfide,6.89 ± 0.09
same,second-order rate constant between the enzyme CT complex and sulfite,Human SQOR [3],390000 M⁻¹ s⁻¹
same,pKa,[4],6.91
B1,apparent pKa of steady-state activity,Human TST [5],8.47 ± 0.06
B2,pKa of the thiol,[6],5.2
